From patent US20050282814A1, “Vasculostatic agents and methods of use thereof” (TargeGen, Inc., priority 2002, published 2005)
Structures can show the parent of a compound that is named as a salt.

Experiments:
angiogenesis = experiment: Matrigel plug angiogenesis model (bFGF or VEGF), FITC-lectin; format: in vivo, Athymic WeHi (nu/nu) mice; conditions: 10 mg/kg i.p. bid for four days; matrigel with bFGF or VEGF
Description: FIGS. 13 and 14 illustrate the effects of invention compounds for their capacity to inhibit angiogenesis in vivo. […] Tumor extracellular matrix infused with the 160 ng of the described growth factors were injected subcutaneously in a Balb/C mouse. The described invention compound was injected daily at the described concentration for 5 days. After 5 days the animals were sacrificed and angiogenesis quantified based on the binding of fluorescently labeled, endothelium specific FITC-lectin. In the graph, compound A is 6,7-bis(4-hydroxyphenyl)-pteridin-4-ylamine sulfate salt.
Referring to FIGS. 13 and 14, a murine model of angiogenesis was used to screen compounds for their capacity to inhibit angiogenesis. […] In the graph, compound A is 6,7-bis(4-hydroxyphenyl)-pteridin-4-ylamine sulfate salt. Athymic WeHi (nu/nu) mice were first injected with 400 lls of an ice-cold tumor-derived extracellular matrix substrate, matrigel (Becton-Dickinson) infused with 400 ng/ml of bFGF or VEGF (R&D Systems) which rapidly solidifies into a subdermal plug at body temperature. Mice were subsequently injected intaperitoneally with 10 mg/kg of the indicated compounds bid for four days. […] Twenty minutes after injection of the lectin, mice were euthanized, matrigel plugs were then extracted, solublized in PBS with mechanical grinding and the fluorescent content of individual plugs was quantified. […]

[1] = tested on: edema formation induced using histamine as an agonist; experiment: Miles assay with histamine as agonist; format: in vivo, Sprague-Dawley rats; conditions: 1.5 mg/kg; histamine 10 μg/injection site; vehicle 12
Description: Sprague-Dawley rats were first injected IV with vehicle alone or test agent, followed by IV injection of Evans blue dye, followed by intradermal injections of saline and VEGF (200 ng/injection site) along both shaved flanks. After 45 min, intradermal injection sites were photographed and then scored by a blinded observer for extravasation of Evans blue dye into the dermis (dermal bluing) according to a 4 point scoring system (3=maximal bluing, ≧75% of response in vehicle-treated animals; 2=medium bluing, >25% but <75% of vehicle-treated animals; 1=minimal bluing, ≦25% of vehicle-treated animals; 0=bluing equivalent to saline injection sites on same animal). Individual scores for 4 injection sites (from 2 separate animals) were summed and are shown as a scale of 0-12, with a lower score indicating the greater anti-edema activity; note that all vehicle-treated groups score a value of 12, based on the scoring system outlined above.
The ability of test agents to influence edema induced by agonists other than VEGF was also tested. Compounds cited in this application inhibited edema formation induced using histamine as an agonist, for example, as shown below.
The ability of test agent to influence vascular edema was tested as above, except that the ability to block edema was tested using either VEGF or histamine as the agonist (200 ng and 10 μg/injection site, respectively).

[2] = tested on: Lewis lung carcinoma cells; experiment: Lewis lung carcinoma lung metastases model, alone or with doxorubicin; format: in vivo, Balb/C mice; conditions: I.P. every 3 days for 3 cycles
Description: (§1) Syngeneic Lewis lung carcinoma cells were injected I.V. in order to establish lung metastases in Balb/C mice. Beginning 10 days after cells were injected, doxorubicin (3 mg/kg) and/or 6,7-bis(4-hydroxyphenyl)-pteridin-4-ylamine, sulfate salt (various doses as shown) was given I.P. every 3 days for 3 cycles. Animals were sacrificed at day 20, lungs were collected, and weighed. Net tumor burden is the weight of tumor-bearing lungs minus the average weight of normal control lungs. N=5/group, p<0.02.
as §1, with “The following experiments show the use of vasculostatic agents of the invention alone and in combination with chemotherapeutic agents for treatment of cancer. […] In the experiment shown in FIG. 2, syngeneic” for “Syngeneic”, “mgikg)” for “mg/kg)”, “salt, (compound A—various” for “salt (various”

acute myocardial infarct = experiment: Rat acute myocardial infarct model (60 min LAD occlusion, reperfusion); format: in vivo, Sprague-Dawley rats; conditions: 1.5 mg/kg IV at 90 min post-reperfusion, 24 hr
Description: A rodent model of acute myocardial infarct, in which the proximal left anterior descending coronary artery (LAD) is occluded for 60 min followed by reperfusion, was used to determine whether test agents reduced infarct size at 24 hours.
Myocardial infarcts were created in Sprague-Dawley rats (200-300 g body weight) by a 60 min occlusion of the LAD followed by LAD reperfusion. At 90 min post-reperfusion, either vehicle alone or test agents were injected IV. At 24 hr post-treatment, the ischemic zone (area at-risk, AAR) was delineated by re-ligation of the LAD followed by IV injection of alkali blue dye, after which hearts were sectioned along the short axis and stained using triphenyltetrazolium chloride to delineate viable from infarcted myocardium. Photographic images were then analyzed using morphometric software to calculate infarct area as a percent of the at-risk area.
The following studies were performed as described above, except that the timing of 3-[2,4-diamino-6-(3-hydroxyphenyl)pteridin-7-yl] phenol dihydrochloride salt administration (at 0.1 mg/kg) was varied. In one group, 3-[2,4-diamino-6-(3-hydroxyphenyl)pteridin-7-yl] phenol dihydrochloride salt was administered at both 60 and 240 min post-occlusion.
In a porcine MI model (90 min of LAD occlusion followed by complete reperfusion), a single 0.3 mg/kg IV bolus delivered 30 min post-reperfusion reduced infarct size by […] vs. controls (40% vs. 56%, N=12-13, P=0.03).

Nc1ncnc2nc(-c3ccc(O)cc3)c(-c3ccc(O)cc3)nc12 [compound A, 6,7-bis(4-hydroxyphenyl)-pteridin-4-ylamine sulfate salt]
inhibition of angiogenesis in vivo (angiogenesis): successfully inhibited angiogenesis in vivo | Score with histamine as agonist (scale of 0-12) [1]: 3 | reduction of tumor burden as a stand alone agent ([2]; lungs weighed at day 20): 25% | reduction of tumor burden in combination with doxorubicin ([2]; doxorubicin 3 mg/kg, day 20): greater than 90% | Infarct (% AAR, mean ± SEM) (acute myocardial infarct): 60.6 ± 1.8 % AAR | % Infarct reduction (acute myocardial infarct; vs vehicle): 20%
